Values of other authors in patent publication US8158648B2, “Heteroaryl 11-beta hydroxysteroid dehydrogenase type I inhibitors” (priority 2005, dated 2012).

Tested on: hepatic glucose production
Conditions: mildly overweight individuals with type 2 diabetes, seven days, versus placebo

In the case of `CC1(C)[C@@H](OC(=O)CCC(=O)O)CC[C@]2(C)[C@H]3C(=O)C=C4[C@@H]5C[C@@](C)(C(=O)O)CC[C@]5(C)CC[C@@]4(C)[C@]3(C)CC[C@@H]12` [carbenoxolone], the hepatic glucose production is listed as “decrease in hepatic glucose production”.
